From patent US8541167B2 (priority 2004, dated 2013)

What was measured:
ECTV = tested on: ECTV; design: species or system A/NCr mice; conditions: mouse, in vivo
[1] = tested on: vaccinia, ectromelia or cowpox; conditions: mouse, in vivo; cited from earlier work
ectromelia virus = tested on: ectromelia virus; design: species or system Mice; conditions: mouse, in vivo, ip, 12.5 mg/kg/day

Compound: Nc1ccn(C[C@@H](CO)OCP(=O)(O)O)c(=O)n1 [Cidofovir]
- protection from death afforded by vaccination in presence vs absence of CDV (ECTV): no difference observed
- efficacy in protecting mice from a lethal dose [1]: high efficacy
- effect of cidofovir during vaccination on level of protection from lethal disease (ectromelia virus): did not affect the level of protection
